Our source for the IC50 values is patent US12011444B2, “N-substituted indole derivatives as PGE2 receptor modulators” (Idorsia Pharmaceuticals Ltd, priority 2015, dated 2024).

The target in one test is PTGER2 (EP2) (Homo sapiens (Human), UniProt P43116). As to the kind of experiment: hEP2 b-arrestin assay (PathHunter HEK 293 PTGER2 b-arrestin cells). Particulars: hEP2 b-arrestin assay (values without asterisk). It is filed as cell-based. The gist of the method: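 Readout is β-galactosidase complementation luminescence, expressed as percent of DMSO control (duplicates). PathHunter HEK293 EP2/β-arrestin 2 cells, grown 24 h, received compound for 15 min at 37 °C before a 120 min challenge with PGE2 at 5 μM final, followed by 1 h detection at room temperature.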

The target of the next test is PTRGER4 (EP4) (Homo sapiens (Human), UniProt P35408). As to the kind of experiment: hEP4 b-arrestin assay (PathHunter HEK 293 PTGER4 b-arrestin cells). It is filed as cell-based. As to conditions: hEP4 b-arrestin assay (values without asterisk). The gist of the method:
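Antagonist mode: compound is given 15 min at 37 °C, then 20 nM (final) PGE2 for 120 min, in HEK293 cells stably expressing EP4 fused to ProLink and β-arrestin 2 fused to EA. Recruitment read as β-gal luminescence after 1 h reagent at room temperature, as percent of DMSO control.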

The structures appear in SMILES notation. pIC50: −log10 of the molar value.

Chain of PTGER2 (EP2) (P43116 whole entry): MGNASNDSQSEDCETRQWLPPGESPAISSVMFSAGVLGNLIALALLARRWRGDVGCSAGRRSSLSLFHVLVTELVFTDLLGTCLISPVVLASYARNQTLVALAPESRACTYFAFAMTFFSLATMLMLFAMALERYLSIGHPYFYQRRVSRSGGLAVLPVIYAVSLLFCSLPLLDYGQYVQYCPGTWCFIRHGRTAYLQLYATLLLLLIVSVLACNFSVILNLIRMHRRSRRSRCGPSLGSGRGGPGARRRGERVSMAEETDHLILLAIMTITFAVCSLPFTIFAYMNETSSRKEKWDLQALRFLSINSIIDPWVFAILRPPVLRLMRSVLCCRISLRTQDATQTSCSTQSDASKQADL
Chain of PTRGER4 (EP4) (P35408 whole entry, looked up, the tested form may be a part): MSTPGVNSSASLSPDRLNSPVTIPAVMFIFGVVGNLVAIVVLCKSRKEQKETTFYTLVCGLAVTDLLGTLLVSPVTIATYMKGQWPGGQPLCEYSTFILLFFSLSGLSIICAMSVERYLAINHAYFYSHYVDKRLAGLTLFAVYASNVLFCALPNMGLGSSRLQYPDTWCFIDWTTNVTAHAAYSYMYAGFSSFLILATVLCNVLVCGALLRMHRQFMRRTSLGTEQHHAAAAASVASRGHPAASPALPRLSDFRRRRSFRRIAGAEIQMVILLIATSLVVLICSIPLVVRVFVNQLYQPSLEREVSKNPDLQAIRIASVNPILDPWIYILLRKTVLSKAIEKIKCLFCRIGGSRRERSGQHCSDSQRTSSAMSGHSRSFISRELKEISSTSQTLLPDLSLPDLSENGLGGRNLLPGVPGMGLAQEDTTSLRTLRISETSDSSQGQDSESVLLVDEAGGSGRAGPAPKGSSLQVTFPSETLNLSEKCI

Turning to `COc1ccc(F)c2c1cc(C#N)n2CCNc1cc(-c2ccc3c(=O)[nH]n(C)c3c2)ncn1` [Example 921, 7-Fluoro-4-methoxy-1-{2-[6-(1-methyl-3-oxo-2,3-dihydro-1H-indazol-6-yl)-pyrimidin-4-ylamino]-ethyl}-1H-indole-2-carbonitrile], the figures for the negative logarithm of the IC50 (pIC50) at PTGER2 (EP2) and on PTRGER4 (EP4) were 8.22 and 8.05, respectively.

For `CCSc1cc(C(=O)O)cc(-c2cc(NCCn3c(C#N)cc4c(OC)ccc(F)c43)ncn2)c1` [Example 922, 3-{6-[2-(2-Cyano-7-fluoro-4-methoxy-indol-1-yl)-ethylamino]-pyrimidin-4-yl}-5-ethylsulfanyl-benzoic acid], the negative-log IC50 (pIC50) on PTGER2 (EP2) and against PTRGER4 (EP4) was 7.72 each time.

`COc1ccc(F)c2c1cc(C#N)n2CCNc1cc(-c2ccc(-c3cnn[nH]3)cc2)ncn1` [Example 923, 7-Fluoro-4-methoxy-1-(2-{6-[4-(3H-[1,2,3]triazol-4-yl)-phenyl]-pyrimidin-4-ylamino}-ethyl)-1H-indole-2-carbonitrile]: the negative-log IC50 (pIC50) against PTGER2 (EP2) is 7.70; against PTRGER4 (EP4), 7.38.

`CCOc1cc(-c2cc(NCCn3c(C#N)cc4c(OC)ccc(F)c43)ncn2)ccc1CCC(=O)O` [Example 924, 3-(4-{6-[2-(2-Cyano-7-fluoro-4-methoxy-indol-1-yl)-ethylamino]-pyrimidin-4-yl}-2-ethoxy-phenyl)-propionic acid]: the figures for the pIC50 against PTGER2 (EP2) and against PTRGER4 (EP4) were 6.65 and 6.51, respectively.

`CCOc1cc(OCCC(=O)O)cc(-c2cc(NCCn3c(C#N)cc4c(OC)ccc(F)c43)ncn2)c1` [Example 926, 3-(3-{6-[2-(2-Cyano-7-fluoro-4-methoxy-indol-1-yl)-ethylamino]-pyrimidin-4-yl}-5-ethoxy-phenoxy)-propionic acid]: the pIC50 against PTGER2 (EP2) is 8.40; against PTRGER4 (EP4) it was 7.70.

Regarding `CCOc1cc(-c2cc(NCCn3c(C#N)cc4c(OC)ccc(F)c43)ncn2)ccc1OCCC(=O)O` [Example 927, 3-(4-{6-[2-(2-Cyano-7-fluoro-4-methoxy-indol-1-yl)-ethylamino]-pyrimidin-4-yl}-2-ethoxy-phenoxy)-propionic acid], the results for the pIC50 against PTGER2 (EP2) and on PTRGER4 (EP4) were 7.51 and 8.52, respectively.

For the molecule `CCOc1c(C(=O)O)ccc(-c2cc(NCCn3c(C#N)cc4c(OC)ccc(F)c43)ncn2)c1F` [Example 928, 4-{6-[2-(2-Cyano-7-fluoro-4-methoxy-indol-1-yl)-ethylamino]-pyrimidin-4-yl}-2-ethoxy-3-fluoro-benzoic acid], the results for the pIC50 against PTGER2 (EP2) and at PTRGER4 (EP4) were 7.43 and 7.35, respectively.

On to `CCOc1cc(-c2cc(NCCn3c(C#N)cc4c(OC)ccc(F)c43)ncn2)ccc1S(N)(=O)=O` [Example 929, 4-{6-[2-(2-Cyano-7-fluoro-4-methoxy-indol-1-yl)-ethylamino]-pyrimidin-4-yl}-2-ethoxy-benzenesulfonamide], for which the pIC50 at PTGER2 (EP2) is 7.70; against PTRGER4 (EP4) it was 7.48.

Turning to `CCOc1cc(-c2cc(NCCn3c(C#N)cc4c(OC)ccc(F)c43)ncn2)ccc1-c1cnn[nH]1` [Example 930, 1-(2-{6-[3-Ethoxy-4-(3H-[1,2,3]triazol-4-yl)-phenyl]-pyrimidin-4-ylamino}-ethyl)-7-fluoro-4-methoxy-1H-indole-2-carbonitrile], the results for the pIC50 against PTGER2 (EP2) and against PTRGER4 (EP4) were 8.40 and 8.70, respectively.

As for `CCOc1cc(-c2cc(NCCn3c(C#N)cc4c(OC)ccc(F)c43)ncn2)sc1CCC(=O)O` [Example 932, 3-(5-{6-[2-(2-Cyano-7-fluoro-4-methoxy-indol-1-yl)-ethylamino]-pyrimidin-4-yl}-3-ethoxy-thiophen-2-yl)-propionic acid], the pIC50 at PTGER2 (EP2) is 7.85; against PTRGER4 (EP4) it was 8.52.

For `COc1ccc(F)c2c1cc(C#N)n2CCNc1cc(-c2ccc(-c3c(O)c(=O)c3=O)cc2)ncn1` [Example 933, 7-Fluoro-1-(2-{6-[4-(2-hydroxy-3,4-dioxo-cyclobut-1-enyl)-phenyl]-pyrimidin-4-ylamino}-ethyl)-4-methoxy-1H-indole-2-carbonitrile], the pIC50 was 7.92 against PTGER2 (EP2) and 8.40 against PTRGER4 (EP4).

Take `CCOc1cc(-c2cc(NCCn3c(C#N)cc4c(OC)ccc(F)c43)ncn2)ccc1C(=O)C(=O)O` [Example 934, (4-{6-[2-(2-Cyano-7-fluoro-4-methoxy-indol-1-yl)-ethylamino]-pyrimidin-4-yl}-2-ethoxy-phenyl)-oxo-acetic acid]: the pIC50 against PTGER2 (EP2) is 7.80; at PTRGER4 (EP4) it was 7.51.

For the molecule `CCCSc1cc(-c2cc(NCCn3c(C#N)cc4c(OC)ccc(F)c43)ncn2)ccc1C(=O)O` [Example 935, 4-{6-[2-(2-Cyano-7-fluoro-4-methoxy-indol-1-yl)-ethylamino]-pyrimidin-4-yl}-2-propylsulfanyl-benzoic acid], the figures for the pIC50 against PTGER2 (EP2) and at PTRGER4 (EP4) were 8.15 and 8.40, respectively.

For the molecule `CCCSc1cc(-c2cc(NCCn3c(C#N)cc4c(OC)cc(F)cc43)ncn2)ccc1C(=O)O` [Example 936, 4-{6-[2-(2-Cyano-6-fluoro-4-methoxy-indol-1-yl)-ethylamino]-pyrimidin-4-yl}-2-propylsulfanyl-benzoic acid], the values for the pIC50 at PTGER2 (EP2) and on PTRGER4 (EP4) were 7.74 and 8.10, respectively.

For the molecule `COc1ccc(F)c2c1cc(C#N)n2CCNc1cc(-c2ccc(C(=O)O)c(SC(C)C)c2)ncn1` [Example 937, 4-{6-[2-(2-Cyano-7-fluoro-4-methoxy-indol-1-yl)-ethylamino]-pyrimidin-4-yl}-2-isopropylsulfanyl-benzoic acid], the negative-log IC50 (pIC50) against PTGER2 (EP2) is 7.68; against PTRGER4 (EP4) it was 7.89.

Take `COc1cc(F)cc2c1cc(C#N)n2CCNc1cc(-c2ccc(C(=O)O)c(SC(C)C)c2)ncn1` [Example 938, 4-{6-[2-(2-Cyano-6-fluoro-4-methoxy-indol-1-yl)-ethylamino]-pyrimidin-4-yl}-2-isopropylsulfanyl-benzoic acid]: the pIC50 is 7.42 at PTGER2 (EP2) and 7.54 against PTRGER4 (EP4).

On to `CCCc1cc(-c2cc(NCCn3c(C#N)cc4c(OC)ccc(F)c43)ncn2)cc(F)c1C(=O)O` [Example 939, 4-{6-[2-(2-Cyano-7-fluoro-4-methoxy-indol-1-yl)-ethylamino]-pyrimidin-4-yl}-2-fluoro-6-propyl-benzoic acid], for which the values for the pIC50 against PTGER2 (EP2) and on PTRGER4 (EP4) were 7.82 and 7.77, respectively.

`CCOc1cc(-c2cc(NCCn3c(C#N)cc4c(C)c(F)cc(F)c43)ncn2)sc1C(=O)O` [Example 940, 5-{6-[2-(2-Cyano-5,7-difluoro-4-methyl-indol-1-yl)-ethylamino]-pyrimidin-4-yl}-3-ethoxy-thiophene-2-carboxylic acid]: the pIC50 was 8.00 at PTGER2 (EP2) and 8.52 on PTRGER4 (EP4).

On to `CCOc1cc(-c2cc(NCCn3c(C#N)cc4c(C)cc(F)c(F)c43)ncn2)sc1C(=O)O` [Example 942, 5-{6-[2-(2-Cyano-6,7-difluoro-4-methyl-indol-1-yl)-ethylamino]-pyrimidin-4-yl}-3-ethoxy-thiophene-2-carboxylic acid], for which the pIC50 was 8.52 against PTGER2 (EP2) and 8.22 against PTRGER4 (EP4).

As for `CCOc1cc(-c2cc(NCCn3c(C#N)cc4c(OC)cc(F)c(F)c43)ncn2)sc1C(=O)O` [Example 943, 5-{6-[2-(2-Cyano-6,7-difluoro-4-methoxy-indol-1-yl)-ethylamino]-pyrimidin-4-yl}-3-ethoxy-thiophene-2-carboxylic acid], the pIC50 at PTGER2 (EP2) is 8.40; against PTRGER4 (EP4), 8.70.
